Experimental data: a melting point compilation (Tetko et al.; mined from patent text by program, amines drawn as free bases though some values may be those of a salt)

| SMILES | melting point [°C] |
| --- | --- |
| CCC(CC)(CC(=O)Nc1cccc(OCc2ccc3ccc(C)cc3n2)c1)C(=O)O | 75 to 76 |
| COc1ccc(N2CCN(c3c(C)c(C)c4c(c3C)C(O)(c3ccc(C(F)(F)F)cc3)C(C)(C)O4)CC2)cc1 (centres undefined) | 181 to 183 |
| COc1cc(COc2nn(-c3ccccc3)cc2/C=C/c2csc(C)n2)ccc1OCc1nc(-c2ccc(CC(=O)O)cc2)oc1C | 181 to 182 |
| O=C(NCc1ccccc1)c1csc(-n2ccc(OCc3ccccc3)cc2=O)c1 | 162 to 163 |
| CN(C(c1ccc(F)cc1)c1ccc(Cl)cc1Cl)n1cncn1 (centres undefined) | 118 to 119 |
| CC(NC(=O)OC(C)(C)C)C1CCN(c2c(F)c(N)c3c(=O)[nH]c(=O)n4c3c2OCC4C)C1 (centres undefined) | 136 to 138 |
| OC(c1ccc(F)cc1)C1CC2CCN1CC2 (centres undefined) | 69 to 70 |
| CCCCC/C=C\C/C=C\CCCCCCCC(=O)Nc1c(OC)cc(OC)cc1OC | 87 to 89 |
| O=c1[nH]c2cc3ccc(C(F)(F)F)cc3nc2[nH]1 | > 250 |
| N#Cc1ccc2c3ccc(C#N)c4c(C#N)ccc(c5ccc(Br)c1c52)c43 | 235 to 237 |
| CC1(C(F)(F)F)CCCN1C(=O)c1c(F)cccc1F (centres undefined) | 119 to 120 |
| CCCCc1nn(-c2ccc(C(F)(F)F)cn2)cc1/C=C/C(=O)OCC | 84 to 85 |
| CCOC(=O)C=C1NC(C)=C(C(=O)OCC)C(c2ccccc2C(F)(F)F)C1C(=O)OCC (centres undefined) | 98 to 99 |
| COc1ccc(C=CC(=O)N[C@@H](Cc2ccccc2)C(=O)CSCc2ccsc2)c(OC)c1 | 142 to 143 |
| COc1ccc(-c2cc3ccccc3[nH]2)cc1O | 217 |
| Cc1sc(-c2nccs2)c2c1C(=O)CC(C)(C)C2 | 98 to 100 |
| CCSc1ccc(-c2cnccn2)c2c1C(=O)CC(C)C2 (centres undefined) | 152 to 154 |
| c1c2c(cc3c1CCC3)CCC2 | 35 to 36.2 |
| CS(=O)(=O)c1ccc(-c2cnn(-c3cccc(Cl)c3)c(=O)c2Cl)cc1 | 203 to 204 |

| SMILES | melting point [°C] |
| --- | --- |
| Cc1c(O)cc2c(c1Cl)CCC2(C)C | 109 to 110 |
| CCOC(=O)Cc1nnc(-c2cc3cccc(N(C)S(=O)(=O)c4cccs4)c3[nH]2)s1 | 201 to 202 |
| CC(C)NC(=O)c1n[nH]cc1NC(=O)c1ccccn1 | 254 to 255 |
| Cc1ccc(S(=O)(=O)N(C)CC(=O)N2CCC[C@H]2C=O)cc1 | 111 |
| N#Cc1ccc2ccc3ccccc3c(=O)c2c1 | 176 to 177 |
| CCC1CC(=O)c2cc(C(C)C(N)=O)ccc2O1 (centres undefined) | 148 to 150 |
| C#Cc1cc(OC)c(OC)c(OC)c1 | 68 to 70 |
| Nc1nc(N)c(CCCCCc2ccccc2)c(CCCCc2ccccc2)n1 | 75 to 78 |
| CCOC(=O)c1cc2ccc(CBr)cc2o1 | 95 to 102 |
| CCc1c(C(=O)C(N)=O)c2c(NCC(=O)OC)cccc2n1Cc1ccccc1 | 188 to 193 |
| CCCCCCCc1ccc(C=CC(=O)c2ccc(OCC=C(C)C)cc2OCC(=O)O)cc1 | 106 to 107 |
| CN(C)C=C(C#N)C(=O)Nc1ccccc1Cl | 122 to 123 |
| COc1ccc(C(=O)Nc2ccccc2)cc1NCc1ccc2c(c1)OCO2 | 185 to 187 |
| CN1C(=O)C(NC(=O)Nc2ccc(F)cc2)N=C(c2ccccc2)c2ccccc21 (centres undefined) | 269 to 270 |
| Cc1c(-c2ccc(C(F)(F)F)cc2)n(Cc2ccc(OCCBr)cc2)c2ccc(OCc3ccccc3)cc12 | 106 to 109 |
| COc1ccc(-c2c(C(=O)O)c(CSc3nccn3C)nc3cc(OC)c(OC)cc23)cc1OC | 213 to 214 |
| COc1ccc2c(c1)C13CCN(C)C(C2)C1C(C)C(C)C(=O)C3 (centres undefined) | 101 to 102 |
| COc1ccc(-c2nnc(Cl)cc2C)cc1 | 132 |
| CSc1sc(-c2nccs2)c2c1-c1oncc1CC2 | 165 to 168 |

The remaining lines, values ahead:

| melting point [°C] | SMILES |
| --- | --- |
| 109 to 110 | O=C(CCNCC(O)COc1cccc2occc12)NCc1ccccc1 (centres undefined) |
| 107 to 110 | CCOC(=O)C1=Cc2cc(-c3ccc(C(F)(F)F)cc3)ccc2OCC1 |
| 129 to 132 | O=C1N(N2CCCCC2)c2ccccc2C1(Cc1ccnc(F)c1)c1ccccc1 (centres undefined) |
| 109 to 110 | COC(=O)c1ccc(-c2nc(-c3cc(C)sc3C)cs2)cc1 |
| 134 to 138 | CC(C)C(=O)NCC(C)(C)N |
| 141 to 142 | C#Cc1cc(-c2cccs2)c(OC)cc1OC |
| 280 to 282 | Cn1nnnc1-c1cnc2ccccn2c1=O |
| 237 to 239 | Cn1cc(C(=O)NCc2ccc(Cl)cc2)c(=O)c2cc(CCl)cc(I)c21 |
| 180 to 183 | COc1ccc(C(=O)O)cc1OC(=O)c1ccccc1 |
| 122 to 123 | C=C1N(CC)C(=O)OC12CCN(CCCN1c3ccccc3Sc3ccccc31)CC2 |
| 116 to 118 | O=C(O)C(CC1CCCCC1)NC(=O)C(CS)C(F)(F)F (centres undefined) |
| 109 | COC(=O)c1ccc(Cl)c(Cn2nc(C(F)(F)F)n(C)c2=O)c1Cl |
| 130 to 132 | CC(C(=O)O)c1ccc2c(c1)C(=O)C(C(C)C)C2 (centres undefined) |
| 136 | CCOC(=O)C(C(=O)CCCCC(C)C)C1c2ccccc2C(=O)N1c1ccc2ccc(Cl)nc2n1 (centres undefined) |
| 124 | CC(C)[C@@H](Cc1ccc(C(C)(C)C)cc1)C(=O)N1C(=O)OC[C@H]1Cc1ccccc1 |
| 185 to 190 | Cn1cnc2c(Nc3ccc(Cl)cc3)nc(-c3ccccn3)nc21 |
| 120 to 122 | Cc1ccc(CNC(=O)C2=C3N(CCC2=O)c2ccccc2N3CCN(C)C)cc1 |
| 187 to 190 | CC(=O)Nc1ccc2c(c1)C(=O)C(=O)N2CCN(C(C)C)C(C)C |

| melting point [°C] | SMILES |
| --- | --- |
| 224 | CC#CCOc1ccc(S(=O)(=O)C(C(=O)NO)C2CCN(C(=O)c3ccccc3)CC2)cc1 (centres undefined) |
| 144 to 146 | Cc1c(O)c(C)c(Br)c(C)c1Br |
| 189 to 193 | O=C1CC(=O)N(c2ccc(Cl)cc2)N1 |
| 148 to 150 | CSC(=NCCSCc1[nH]cnc1C)NC#N |
| 80 to 82 | CCCC(=O)c1c(O)oc(=O)c(C(=O)CCC)c1O |
| 126 to 127 | CC[Si](C)(C)NC(=O)c1ccc(N)cc1 |
| 230 | CCc1ccccc1NC=C1C(=O)N(c2ccc(NC(C)=O)cc2)N=C1C |
| 130 to 135 | COC(=O)COc1cccc2c(O)c(C(C)=O)ccc12 |
| 103 | COc1cccc(CN=Cc2cccc(O)c2)c1 |
| 135 to 136 | O=C(CN1CC(c2ccc(Cl)cc2)CC1=O)Oc1c(Cl)c(Cl)c(Cl)c(Cl)c1Cl (centres undefined) |
| 130 to 132 | COc1cc2ccccc2cc1C(=O)O |
| 121 to 123 | Nc1ccc(C(=O)c2cccc(N)c2)cc1 |
| 76 | CCCCCCCCCCCCCCCCCCCC1CN(C(=O)c2cc(OC)c(OC)c(OC)c2)CCN1C(=O)c1cc(OC)c(OC)c(OC)c1 (centres undefined) |
| 244 to 246 | O=C(O)c1ccc(Nc2noc(C(F)(F)F)n2)cc1 |
| 171 to 172 | CC(C)(C)OC(=O)N1C(=O)C2(COc3cc4c(cc32)OCCO4)c2ccccc21 (centres undefined) |
| 114 to 115 | CC(=O)N(C(C)=O)c1ccccc1Cn1[nH]c2ccccc2c1=O |
| 226 | COc1cccc(-c2nc(=O)c3ccccc3s2)n1 |
| 160 | COc1cc2c(cc1OC)CN(CCCOc1ccc(NC(=O)c3cccc4c(=O)c5cccc(C)c5[nH]c34)c(C)c1)CC2 |
